Test results as given in patent publication US8592580B2, “Substituted triazinone derivatives” (Sanofi, priority 2008, dated 2013).

Tests used:
GSK3β = GSK3β (Homo sapiens, UniProt P49841); experiment: Inhibitory activity against GSK3β (33P-ATP phosphorylation of prephosphorylated GS1 peptide, four protocols); format: biochemical; details: protocol 3: 7.5 μM GS1 peptide, 10 μM ATP, 50 mM Hepes pH 7.2, one hour at room temperature
Method: Inhibitory Activity of the Medicament of the Present Invention Against GSK3β Four different protocols can be used. In a first protocol: 7.5 μM of prephosphorylated GS1 peptide and 10 μM ATP (containing 300,000 cpm of ^33P-ATP) were incubated in 25 mM Tris-HCl, pH 7.5, 0.6 mM DTT, 6 mM MgCl2, 0.6 mM EGTA, 0.05 mg/ml BSA buffer for 1 hour at room temperature in the presence of GSK3beta (total reaction volume: 100 microliters). In a second protocol: 4.1 μM of prephosphorylated GS1 peptide and 42 μM ATP (containing 260,000 cpm ^33P-ATP) were incubated in 80 mM Mes-NaOH, pH 6.5, 1 mM Mg acetate, 0.5 mM EGTA, 5 mM 2-mercaptoethanol, 0.02% Tween 20, 10% glycerol buffer for 2 hours at room temperature in the presence of GSK3beta. In a third protocol: 7.5 μM of prephosphorylated GS1 peptide and 10 μM ATP (containing 300,000 cpm of ^33P-ATP) were incubated in 50 mM Hepes, pH 7.2, 1 mM DTT, 1 mM MgCl2, 1 mM EGTA, 0.01% Tween 20 buffer for one hour at room temperature in the presence of GSK3beta (total reaction volume: 100 microliters). […] Incorporated ^33P radioactivity was determined by liquid scintillation spectrometry. […]

GSK3β, sequence (P49841 whole entry): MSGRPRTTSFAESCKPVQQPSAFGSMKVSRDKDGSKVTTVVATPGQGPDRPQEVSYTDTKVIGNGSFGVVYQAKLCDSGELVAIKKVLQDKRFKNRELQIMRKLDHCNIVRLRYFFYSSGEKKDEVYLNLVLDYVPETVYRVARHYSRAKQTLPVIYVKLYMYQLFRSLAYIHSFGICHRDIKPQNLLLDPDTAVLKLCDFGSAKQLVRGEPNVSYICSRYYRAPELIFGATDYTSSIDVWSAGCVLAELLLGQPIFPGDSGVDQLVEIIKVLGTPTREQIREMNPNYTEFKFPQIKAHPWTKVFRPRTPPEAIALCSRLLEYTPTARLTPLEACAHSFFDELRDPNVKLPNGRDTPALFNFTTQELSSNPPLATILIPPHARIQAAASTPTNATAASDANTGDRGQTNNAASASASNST

| SMILES | IC50 (GSK3β) | melting point |
| --- | --- | --- |
| Cn1c(NCC(O)c2ccccc2)nc(-c2ccncc2)nc1=O (racemic) [Compound No. 1, (+/−)-6-(2-Hydroxy-2-phenyl-ethylamino)-1-methyl-4-pyridin-4-yl-1H-[1,3,5]triazin-2-one] | 372 nM | 242 to 244 °C |
| O=c1nc(-c2ccncc2)nc(NCCc2ccccc2)[nH]1 [compound 5, 6-(2-Phenylethyl)amino-4-pyridin-4-yl-1H-[1,3,5]triazin-2-one] | 50 nM | 235 to 237 °C |
